According to patent publication US10632127B2, “Targeted notch pathway inhibitors” (Hoffmann-La Roche Inc., priority 2015, dated 2020):
Read-outs that look alike come from different tables or passages of the source.

Experiments:
[1] = Pharmacokinetic assessment in C57BL/6 healthy wild-type mice (i.p.); assay type: in vivo, mouse; details: C57BL/6 mice, 10 mg/kg i.p.
Protocol: (§1) For PK evaluation, the compounds were administered i.p to male C57BL/6 mice in suspension (gelatine/saline 7.5%/0.62% in water) using an administration volume of 4 mL/kg. Blood samples were collected in tubes containing EDTA, plasma was separated by centrifugation and stored at −80° C. Liver and kidney samples (˜100 mg aliquots) were homogenized in three volumes of water using Precellys tissue homogenization tubes (precellys.com). 25 μL of each tissue homogenate was further diluted with 25 μL blank plasma to produce the final tissue homogenate for extraction. All samples were analyzed using protein precipitation followed by LC-MS/MS analysis. Briefly, 50 μL plasma or final tissue homogenate were mixed with 50 μL 0.5M HClO4/acetonitrile 9/1 (containing 200 ng/mL internal standard bosentan). Samples were stirred and 300 μL water was added followed by centrifugation at 5600 rpm (4° C., 10 min). 10 μL supernatant was analyzed by LC/MS analysis. Calibration standards in plasma were prepared the same way. The LC column and conditions used were: Phenomenex, Polar RP, 4 μm, 50×2.1 mm at 0.4 mL/min flow rate with a 3 min gradient from 95% solvent A to 95% solvent B (Solvent A: Water/ACN/HCOOH, 90:10:0.1+10 mM NH4 formate; Solvent B: Water/ACN/HCOOH, 10:90:0.1+10 mM NH4 formate). Mass spectrometric conditions were: Thermo TSQ Vantage with positive heated electrospray ionization in MS/MS mode. Compounds mass transitions monitored were m/z 320.7 to 119.9. PK parameters for all studies were calculated using Phoenix WinNonlin Software.
We next determined the stability, tissue distribution and cleavage rate in plasma, liver and kidney of the designed prodrugs in non-diseased mice. In the in vivo screen, the kinetics and distribution of γ-secretase inhibitor prodrugs Ac-γ-Glu-SecrI (13a), Ac-α-Glu-SecrI (15a) and H-α-Glu-SecrI (15b) were compared with the active γ-secretase inhibitor amine-SecrI (11a). After i.p administration (10 mg/kg) in C57BL/6 mice, the disappearance of the prodrugs and the formation of the active amine-SecrI (11a) were compared in plasma, liver and kidney (Table 5). First, we determined the pharmacokinetics (PK) behavior of amine-SecrI (11a) following i.p. administration (Table 5A). […] Liver and kidney exposure were much higher, with approximately 4.5-fold higher exposure in liver compared to kidney. […] The selectivity towards kidney appeared to decrease over time, probably due to fast clearance and re-equilibration of the amine-SecrI (11a). However, the high selectivity at earlier time-points assured that the total exposure over time was much higher in the kidney compared to the liver.

[2] = Distribution in plasma, liver and kidney in the aristolochic acid mouse model (repeated i.p.); assay type: in vivo; details: 13a 30 mg/kg b.i.d. i.p. repeated, 13 h; for concentration at 13 h: male, C57BL/6, mouse, ip, 30 mg/kg
Protocol: as §1
All experiments with animals were conducted in accordance with federal and local regulation at the respective study location. Kidney injury was induced by intraperitoneal (i.p). injection of aristolochic acid (AA, Sigma-Aldrich, 1×5 mg/kg) in 10 weeks old BALB/c male mice. The γ-secretase inhibitors prodrugs were diluted in NaCl 0.9% and administered i.p., starting one day before the injection of AA (day −1) and then twice daily until day 6 evening (n=5 mice/experimental group). […] The kidneys were cut in four fragments. One fragment was immediately frozen in liquid nitrogen, one fragment was included in OCT (Tissue-Tek, VWR International, Switzerland) and frozen, one fragment was frozen at −80° C. and one fragment was fixed in 4% paraformaldehyde and included in paraffin.
To investigate potential nephroprotective effects of Notch blockade using γ-secretase inhibition and to evaluate the effects of our enzyme-targeted prodrug strategy, we used the in vivo AA mouse model of acute renal tubular damage. […]
Plasma and tissue concentrations of administered compound (Table 6A-C) and formed free γ-secretase inhibitor (8) (Table 6A) or amine-SecrI (11a) (Table 6B-C) were determined following 8-day repeated i.p. administration at 10 mg/kg b.i.d. (Table 6A) or 30 mg/kg b.i.d. […] Numbers in parentheses represent relative amounts with the exposure of 11a in kidney arbitrarily set at each time point to 100%. […] BQL=below quantifiable limit.

[3] = Pharmacokinetic assessment in male Wistar rats (i.v.); assay type: in vivo, rat
Protocol: as §1
We next determined the stability, tissue distribution and cleavage rate in plasma, liver and kidney of the designed prodrugs in male Wistar rats. In the in vivo screen, the kinetics and distribution of the prodrugs Ac-γ-Glu-SecrI (13a) and Ac-γ-Glu-O-SecrI (13c) were compared with the active γ-secretase inhibitor SecrI (8). After i.v. administration in male Wistar rats, the disappearance of the prodrugs and the formation of the active amine-SecrI (11a), amine-O-SecrI (11b) and SecrI (8) were compared in plasma, liver and kidney (Table 7A-C). First, we determined the pharmacokinetics (PK) behavior of SecrI (8) following i.v. administration (Table 7A). […] Liver and kidney exposure were much higher, with same exposure in liver and kidney. […] The selectivity towards kidney stayed constant over time. The carbonate analogue Ac-γ-Glu-O-SecrI (13c) prodrug was converted to a lower extent than the Ac-γ-Glu-SecrI (13a) to amine-O-SecrI (11b) but more to the linker free γ-secretase inhibitor 8 (Table 7C).
Plasma and tissue concentrations of administered compound (A-C) and formed amine-SecrI (11a), amine-O-SecrI (11b) or SecrI (8) (B-C) were determined following i.v. administration in rats (no standard deviation given due to sparse sampling; n≤3 rats per time point). Numbers in parentheses represent relative amounts with the exposure of kidney arbitrarily set at each time point to 100%. […] BQL=below quantifiable limit.

Structure (SMILES): CC(=O)N[C@@H](CCC(=O)NCCNC(=O)OCCN1C(=O)[C@@H](NC(=O)[C@@](C)(O)C(=O)NCC(F)(F)C(F)(F)F)[C@@H](C)Oc2ccc(F)cc21)C(=O)O [Compound 13a, (S)-2-acetamido-5-(2-((2-((2R,3S)-7-fluoro-3-((S)-2-hydroxy-2-methyl-3-oxo-3-(2,2,3,3,3-pentafluoropropylamino)propanamido)-2-methyl-4-oxo-3,4-dihydrobenzo[b][1,4]oxazepin-5(2H)-yl)ethoxy)carbonylamino)ethylamino)-5-oxopentanoic acid]
- conversion to amine-SecrI (11a), in words [1]: high conversion
- plasma exposure, in words [1]: low plasma exposure
- Plasma concentration of administered compound ([1]; 4 h): BQL
- Kidney concentration of administered compound ([1]; 7 h): BQL
- Plasma concentration of administered compound ([1]; 7 h): BQL
- concentration at 0.5 h ([1]; male, mouse, kidney, ip, read-out: Kidney concentration of administered compound): 1030 ng/g
- concentration at 4 h ([1]; male, mouse, kidney, ip, 4 h, read-out: Kidney concentration of administered compound): 16.6 ng/g
- concentration at 0.5 h ([1]; male, mouse, liver, ip, read-out: Liver concentration of administered compound): 3570 ng/g
- concentration at 4 h ([1]; male, mouse, liver, ip, 4 h, read-out: Liver concentration of administered compound): 625 ng/g
- concentration at 7 h ([1]; male, mouse, liver, ip, 7 h, read-out: Liver concentration of administered compound): 22.3 ng/g
- concentration at 0.5 h ([1]; male, mouse, plasma, ip, read-out: Plasma concentration of administered compound): 4.88 ng/mL
- Plasma concentration of 13a ([2]; AA-exposed mice): BQL
- concentration at 13 h ([2]; kidney, AA-exposed mice, read-out: Kidney concentration of 13a): 23 ng/g
- concentration at 13 h ([2]; kidney, mice, without AA (Table 6B), read-out: Kidney concentration of 13a): 11 ng/g
- concentration at 13 h ([2]; liver, AA-exposed mice, read-out: Liver concentration of 13a): 155 ng/g
- concentration at 13 h ([2]; liver, mice, without AA (Table 6B), read-out: Liver concentration of 13a): 19 ng/g
- concentration at 13 h ([2]; plasma, mice, without AA (Table 6B), read-out: Plasma concentration of 13a): 6 ng/mL
- Liver concentration of 13a ([3]; 13a 1.6 mg/kg i.v., 4 h): BQL
- Plasma concentration of 13a ([3]; 13a 1.6 mg/kg i.v., 4 h): BQL
- Kidney concentration of 13a ([3]; 13a 1.6 mg/kg i.v., 7 h): BQL
- Liver concentration of 13a ([3]; 13a 1.6 mg/kg i.v., 7 h): BQL
- Plasma concentration of 13a ([3]; 13a 1.6 mg/kg i.v., 7 h): BQL
- conversion to amine-SecrI (11a), in words ([3]; 13a i.v., 0.25 h): high conversion
- conversion to the linker-free γ-secretase inhibitor 8, in words ([3]; i.v.): never observed significant amounts
- plasma exposure, in words ([3]; i.v.): low plasma exposure
- stability in plasma, in words ([3]; i.v.): good stability in plasma
- concentration at 0.25 h ([3]; rat, kidney, iv, 13a 1.6 mg/kg i.v., 0.25 h, read-out: Kidney concentration of 13a): 188 ng/g
- concentration at 0.5 h ([3]; rat, kidney, iv, 13a 1.6 mg/kg i.v., read-out: Kidney concentration of 13a): 12.7 ng/g
- concentration at 4 h ([3]; rat, kidney, iv, 13a 1.6 mg/kg i.v., 4 h): 16.6 ng/g
- concentration at 0.25 h ([3]; rat, liver, iv, 13a 1.6 mg/kg i.v., 0.25 h, read-out: Liver concentration of 13a): 400 ng/g
- concentration at 0.5 h ([3]; rat, liver, iv, 13a 1.6 mg/kg i.v., read-out: Liver concentration of 13a): 33.4 ng/g
- concentration at 0.25 h ([3]; rat, plasma, iv, 13a 1.6 mg/kg i.v., 0.25 h, read-out: Plasma concentration of 13a): 295 ng/mL
- concentration at 0.5 h ([3]; rat, plasma, iv, 13a 1.6 mg/kg i.v., read-out: Plasma concentration of 13a): 11.2 ng/mL
